Broadly, the EC50 is the concentration that produces a half-maximal response. Lower therefore signals a more potent agent.

Here are results for seven molecules from patent publication US20200254065A1, “LONG-ACTING GLP-2 ANALOGS” (OPKO Biologics Ltd., priority 2019, published 2020).

The nature of data set [1]: PK after single SC injection in rats (LC-MS/MS). The settings on record: rat, in vivo, 2 mg/kg. The method, then: To support the pharmacodynamic effects of V4 and Cys-FMS-V4 as detailed in Example 9, a pharmacokinetic analysis was also conducted. In this study (Study reference 15204), all animals were injected SC on Day 1 with 2 mg/kg peptide content of V4, Cys-FMS-V4 and Apraglutide. Blood samples were collected at 2, 8, 12, 24, 36, 48, 72, 96, 120 hours, and Days 7, 8, 9, 10, 11, 12, 13 and 14 post-dose administration and subsequently taken to LC-MS/MS analysis to determine plasma levels of each compound. For Cys-FMS-V4, a 2-analyte method was applied to determine the plasma concentrations of both the full conjugate and the V4 that was hydrolyzed from it (V4 hydrolyzed). Plasma concentrations (μM), as measured by using the LC-MS/MS method, of V4 peptide, Cys-FMS-V4, hydrolyzed V4, and Apraglutide are presented in FIG. 17.

Data set [2] in a line: PK after single IV injection in rats. It is filed as in vivo. The settings on record: rat, in vivo, iv, 2 mg/kg. The source says:
Blood samples were collected at 0.5, 2, 4, 8, 12, 24, 36, 48, 72, 96- and 120-hours post-dose administration.

Data set [3] can be described thus: Stability of GLP-2 analogues on incubation at 37° C. (appearance, O.D. reading, RP-HPLC). Type of data set: physicochemical. The settings on record: following 48 h incubation at 37° C.; for Stability via RP-HPLC main peak: change of main peak. The method, then: The GLP-2 analogues were tested for stability via appearance, O.D. reading (A.280, and A.325) and RP-HPLC (purity, and peak area) following t=0, 1 day, and 48 h incubation at 37° C.

In data set [4] the target is T1, GLP-2 receptor (Homo sapiens, UniProt O95838).
T1 sequence (O95838 1-553): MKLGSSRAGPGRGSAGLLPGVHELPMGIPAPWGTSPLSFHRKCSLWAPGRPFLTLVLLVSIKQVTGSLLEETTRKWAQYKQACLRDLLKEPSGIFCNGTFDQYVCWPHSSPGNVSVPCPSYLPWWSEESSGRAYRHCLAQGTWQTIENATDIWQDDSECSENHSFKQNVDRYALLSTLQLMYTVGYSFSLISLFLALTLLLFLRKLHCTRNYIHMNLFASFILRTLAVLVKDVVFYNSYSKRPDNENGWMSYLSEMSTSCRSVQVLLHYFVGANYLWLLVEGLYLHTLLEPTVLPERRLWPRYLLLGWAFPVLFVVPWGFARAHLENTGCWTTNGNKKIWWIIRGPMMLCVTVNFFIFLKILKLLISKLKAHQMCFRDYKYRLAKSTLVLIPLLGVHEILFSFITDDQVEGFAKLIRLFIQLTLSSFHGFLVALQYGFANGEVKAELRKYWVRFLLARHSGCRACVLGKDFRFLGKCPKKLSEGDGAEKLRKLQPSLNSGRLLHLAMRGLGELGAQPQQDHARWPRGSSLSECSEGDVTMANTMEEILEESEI
Description: GLP-2 receptor Cell Based Assay (CBA).
Description: Evaluation of in vitro binding affinity of the different peptides was assessed by using Cell Based Assay (CBA) in the presence of escalating doses of the different peptides.

The target of data set [5] is T2, GLP-2 receptor (UniProt O95838 1-553, limits assumed).
T2 sequence (looked up): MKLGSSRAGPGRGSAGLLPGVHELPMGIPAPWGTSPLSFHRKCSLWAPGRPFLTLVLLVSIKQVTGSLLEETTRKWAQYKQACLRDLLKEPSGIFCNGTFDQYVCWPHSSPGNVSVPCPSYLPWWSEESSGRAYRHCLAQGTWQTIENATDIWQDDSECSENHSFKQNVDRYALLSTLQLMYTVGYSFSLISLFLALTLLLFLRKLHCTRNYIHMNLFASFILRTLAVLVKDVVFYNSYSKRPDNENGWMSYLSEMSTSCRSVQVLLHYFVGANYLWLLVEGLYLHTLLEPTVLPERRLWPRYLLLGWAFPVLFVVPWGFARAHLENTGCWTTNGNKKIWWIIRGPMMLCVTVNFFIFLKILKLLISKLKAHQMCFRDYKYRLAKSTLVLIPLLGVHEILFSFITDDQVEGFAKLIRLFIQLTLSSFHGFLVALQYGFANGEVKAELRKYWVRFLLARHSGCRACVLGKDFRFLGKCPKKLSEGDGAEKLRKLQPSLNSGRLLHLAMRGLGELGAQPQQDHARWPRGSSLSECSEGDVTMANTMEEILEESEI
Description: cell-based or functional assay.

Setting [6] is: Table 8, average of 3 independent CBA.

Square brackets hold non-standard residues; d marks the D form. Ends that are not written are not given here. Peptide text beside a SMILES is read from it. Nle = CCCC[C@H](N)C(=O)O

Consider `CCCC[C@H](NC(=O)[C@H](CCC(=O)O)NC(=O)[C@H](CC(=O)O)NC(=O)[C@H](CO)NC(=O)[C@H](Cc1ccccc1)NC(=O)[C@H](CO)NC(=O)CNC(=O)[C@H](CCC(=O)O)NC(=O)CNC(=O)[C@@H](N)Cc1c[nH]cn1)C(=O)N[C@@H](CC(N)=O)C(=O)N[C@H](C(=O)N[C@H](C(=O)N[C@@H](CC(C)C)C(=O)N[C@@H](CC(=O)O)C(=O)N[C@@H](CC(C)C)C(=O)N[C@@H](CC(C)C)C(=O)N[C@@H](C)C(=O)N[C@@H](C)C(=O)N[C@@H](CCCNC(=N)N)C(=O)N[C@@H](CC(=O)O)C(=O)N[C@@H](Cc1ccccc1)C(=O)N[C@H](C(=O)N[C@@H](CC(N)=O)C(=O)N[C@@H](Cc1c[nH]c2ccccc12)C(=O)N[C@@H](CC(C)C)C(=O)N[C@H](C(=O)N[C@@H](CCC(N)=O)C(=O)N[C@H](C(=O)N[C@@H](CCCCN)C(=O)N[C@H](C(=O)N[C@H](C(=O)N[C@@H](CC(=O)O)C(N)=O)[C@@H](C)O)[C@@H](C)CC)[C@@H](C)O)[C@@H](C)CC)[C@@H](C)CC)[C@@H](C)CC)[C@@H](C)O` [V4 (hydrolyzed)] (H-HGEGSFSDE[Nle]NTILDLLAARDFINWLIQTKITD-NH2), for which, in data set [1], the Cl/F obs is listed as 0.034 (μmol/kg)/(μmol/L)/h and the Vz/F_obs is given as 2.19 (μmol/kg)/(μmol/L). Also, in data set [2], the Cl/F_obs is on record as 0.042 (μmol/kg)/(μmol/L)/h and the Vz/F_obs is given as 0.487 (μmol/kg)/(μmol/L).
Turning to `CCCC[C@H](NC(=O)[C@H](CCC(=O)O)NC(=O)[C@H](CC(=O)O)NC(=O)[C@H](CO)NC(=O)[C@H](Cc1ccccc1)NC(=O)[C@H](CO)NC(=O)CNC(=O)[C@H](CCC(=O)O)NC(=O)CNC(=O)[C@@H](N)Cc1c[nH]cn1)C(=O)N[C@H](Cc1ccccc1)C(=O)N[C@H](C(=O)N[C@H](C(=O)N[C@@H](CC(C)C)C(=O)N[C@@H](CC(=O)O)C(=O)N[C@@H](CC(N)=O)C(=O)N[C@@H](CC(C)C)C(=O)N[C@@H](C)C(=O)N[C@@H](C)C(=O)N[C@@H](CCCNC(=N)N)C(=O)N[C@@H](CC(=O)O)C(=O)N[C@@H](Cc1ccccc1)C(=O)N[C@H](C(=O)N[C@@H](CC(N)=O)C(=O)N[C@@H](Cc1c[nH]c2ccccc12)C(=O)N[C@@H](CC(C)C)C(=O)N[C@H](C(=O)N[C@@H](CCC(N)=O)C(=O)N[C@H](C(=O)N[C@@H](CCCCN)C(=O)N[C@H](C(=O)N[C@H](C(=O)N[C@@H](CC(=O)O)C(N)=O)[C@@H](C)O)[C@@H](C)CC)[C@@H](C)O)[C@@H](C)CC)[C@@H](C)CC)[C@@H](C)CC)[C@@H](C)O` [Variant 2] (H-HGEGSFSDE[Nle][dF]TILDNLAARDFINWLIQTKITD-NH2), in data set [3], the Solubility via appearance entry is listed as “V2: opaque” and the “Stability via RP-HPLC main peak” value is “V2: −30%”. Besides, on GLP-2 receptor [4] (Table 7), the “EC50 Ratio to Teduglutide” value came to 6.4.
`CCCC[C@H](NC(=O)[C@H](CCC(=O)O)NC(=O)[C@H](CC(=O)O)NC(=O)[C@H](CO)NC(=O)[C@H](Cc1ccccc1)NC(=O)[C@H](CO)NC(=O)CNC(=O)[C@H](CCC(=O)O)NC(=O)CNC(=O)[C@@H](N)Cc1c[nH]cn1)C(=O)N[C@H](Cc1ccccc1)C(=O)N[C@H](C(=O)N[C@H](C(=O)N[C@@H](CC(C)C)C(=O)N[C@@H](CC(=O)O)C(=O)N[C@@H](CC(C)C)C(=O)N[C@@H](CC(C)C)C(=O)N[C@@H](C)C(=O)N[C@@H](C)C(=O)N[C@@H](CCCNC(=N)N)C(=O)N[C@@H](CC(=O)O)C(=O)N[C@@H](Cc1ccccc1)C(=O)N[C@H](C(=O)N[C@@H](CC(N)=O)C(=O)N[C@@H](Cc1c[nH]c2ccccc12)C(=O)N[C@@H](CC(C)C)C(=O)N[C@H](C(=O)N[C@@H](CCC(N)=O)C(=O)N[C@H](C(=O)N[C@@H](CCCCN)C(=O)N[C@H](C(=O)N[C@H](C(=O)N[C@@H](CC(=O)O)C(N)=O)[C@@H](C)O)[C@@H](C)CC)[C@@H](C)O)[C@@H](C)CC)[C@@H](C)CC)[C@@H](C)CC)[C@@H](C)O` [Variant 9] (H-HGEGSFSDE[Nle][dF]TILDLLAARDFINWLIQTKITD-NH2): in data set [3], the Solubility via appearance result was “V9: clear” and the “Stability via RP-HPLC main peak” value is listed as “V9: −1.5%”.
For “H-HGEGTFSSELATILDALAARDFIAWLIATKITDKKKKKK-NH2 [Variant 10, NH2-HG^2E^3GT^5FSS^8EL^10A^11TILDA^16LAAR20DFIA^24WLIA^28TKITDK^34K^35K^36K^37K^38K^39- NH2, reference compound]”, at GLP-2 receptor [4] (setting [6]), the “EC50 Ratio to Teduglutide” value is given as 9.4 and the “EC50 Ratio to Variant 4” value is recorded as 5.3.
As to “HGEGTFSSELATILDALAARDFIAWLIATKITDKKKKKK-NH2 [Variant 10, NH2-HG^2E^3GT^5FSS^8EL^10A^11TILDA^16LAAR20DFIA^24WLIA^28TKITDK^34K^35K^36K^37K^38K^39- NH2, reference compound]”, it took 5.4 nM to reach a half-maximal effect on GLP-2 receptor [4] (EC50 (nM) Average, average of 3 independent CBA, different GLP-2R Assay Kit lot (Table 8)) (EC50).

B1: GLP-2 Variant #2 (peptide)
peptide: H-HGEGSFSDE[Nle][dF]TILDNLAARDFINWLIQTKITD-NH2
SMILES: CCCC[C@H](NC(=O)[C@H](CCC(=O)O)NC(=O)[C@H](CC(=O)O)NC(=O)[C@H](CO)NC(=O)[C@H](Cc1ccccc1)NC(=O)[C@H](CO)NC(=O)CNC(=O)[C@H](CCC(=O)O)NC(=O)CNC(=O)[C@@H](N)Cc1c[nH]cn1)C(=O)N[C@H](Cc1ccccc1)C(=O)N[C@H](C(=O)N[C@H](C(=O)N[C@@H](CC(C)C)C(=O)N[C@@H](CC(=O)O)C(=O)N[C@@H](CC(N)=O)C(=O)N[C@@H](CC(C)C)C(=O)N[C@@H](C)C(=O)N[C@@H](C)C(=O)N[C@@H](CCCNC(=N)N)C(=O)N[C@@H](CC(=O)O)C(=O)N[C@@H](Cc1ccccc1)C(=O)N[C@H](C(=O)N[C@@H](CC(N)=O)C(=O)N[C@@H](Cc1c[nH]c2ccccc12)C(=O)N[C@@H](CC(C)C)C(=O)N[C@H](C(=O)N[C@@H](CCC(N)=O)C(=O)N[C@H](C(=O)N[C@@H](CCCCN)C(=O)N[C@H](C(=O)N[C@H](C(=O)N[C@@H](CC(=O)O)C(N)=O)[C@@H](C)O)[C@@H](C)CC)[C@@H](C)O)[C@@H](C)CC)[C@@H](C)CC)[C@@H](C)CC)[C@@H](C)O
In the case of B1, in the data set with GLP-2 receptor [5], the “EC50 Ratio to Teduglutide, CBA” value amounted to 6.4 fold and the “EC50 [nM], Cell Based Assay (CBA), cells overexpressing the GLP-2 receptor” value was 36.1 nM.

B2: GLP-2 Variant #6 (peptide)
peptide: H-HGEGSFSDE[Nle]NTILDLLAARDFINWLIQTKITD-OH
SMILES: CCCC[C@H](NC(=O)[C@H](CCC(=O)O)NC(=O)[C@H](CC(=O)O)NC(=O)[C@H](CO)NC(=O)[C@H](Cc1ccccc1)NC(=O)[C@H](CO)NC(=O)CNC(=O)[C@H](CCC(=O)O)NC(=O)CNC(=O)[C@@H](N)Cc1c[nH]cn1)C(=O)N[C@@H](CC(N)=O)C(=O)N[C@H](C(=O)N[C@H](C(=O)N[C@@H](CC(C)C)C(=O)N[C@@H](CC(=O)O)C(=O)N[C@@H](CC(C)C)C(=O)N[C@@H](CC(C)C)C(=O)N[C@@H](C)C(=O)N[C@@H](C)C(=O)N[C@@H](CCCNC(=N)N)C(=O)N[C@@H](CC(=O)O)C(=O)N[C@@H](Cc1ccccc1)C(=O)N[C@H](C(=O)N[C@@H](CC(N)=O)C(=O)N[C@@H](Cc1c[nH]c2ccccc12)C(=O)N[C@@H](CC(C)C)C(=O)N[C@H](C(=O)N[C@@H](CCC(N)=O)C(=O)N[C@H](C(=O)N[C@@H](CCCCN)C(=O)N[C@H](C(=O)N[C@H](C(=O)N[C@@H](CC(=O)O)C(=O)O)[C@@H](C)O)[C@@H](C)CC)[C@@H](C)O)[C@@H](C)CC)[C@@H](C)CC)[C@@H](C)CC)[C@@H](C)O
Consider B2, for which, in the data set with GLP-2 receptor [5], the “EC50 Ratio to Teduglutide, CBA” value is 3.8 fold and the “EC50 [nM], Cell Based Assay (CBA), cells overexpressing the GLP-2 receptor” value amounted to 21.7 nM.
